Test [1] deals with T1, EGFR (Homo sapiens, UniProt P00533).
T1 construct: Add 7 ug A431 cell lysate per well (EGFR source); endogenous in cells; host or cells: A431
Description: EGFR ELISA assay (in vitro kinase activity, EGFR captured from A431 cell lysate). The class given is biochemical. Also on record: concentration or dose not given beside the values. A digest of the protocol: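 EGFR from A431 lysate was captured on anti-EGFR antibody-coated plates and preincubated with compounds for 30 min. Autophosphorylation ran 5 min with 3 uM ATP and 5 mM MnCl2 (final), stopped with 20 mM EDTA. Phosphotyrosine was detected by anti-pTyr ELISA with ABTS/H2O2, read at 410 nm.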
(ELISA stands for enzyme-linked immunosorbent assay.)

In test [2] the test system is MET. Description: MET biochemical kinase assay. The arrangement: species or system human; concentration or dose not given beside the values. In outline:
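Plates coated with anti-rabbit Fc bind a rabbit anti-MET antibody that captures receptor from cell lysates; unbound protein is washed off before compound and ATP-containing kinase buffer go in.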

T1 sequence (P00533 25-1210): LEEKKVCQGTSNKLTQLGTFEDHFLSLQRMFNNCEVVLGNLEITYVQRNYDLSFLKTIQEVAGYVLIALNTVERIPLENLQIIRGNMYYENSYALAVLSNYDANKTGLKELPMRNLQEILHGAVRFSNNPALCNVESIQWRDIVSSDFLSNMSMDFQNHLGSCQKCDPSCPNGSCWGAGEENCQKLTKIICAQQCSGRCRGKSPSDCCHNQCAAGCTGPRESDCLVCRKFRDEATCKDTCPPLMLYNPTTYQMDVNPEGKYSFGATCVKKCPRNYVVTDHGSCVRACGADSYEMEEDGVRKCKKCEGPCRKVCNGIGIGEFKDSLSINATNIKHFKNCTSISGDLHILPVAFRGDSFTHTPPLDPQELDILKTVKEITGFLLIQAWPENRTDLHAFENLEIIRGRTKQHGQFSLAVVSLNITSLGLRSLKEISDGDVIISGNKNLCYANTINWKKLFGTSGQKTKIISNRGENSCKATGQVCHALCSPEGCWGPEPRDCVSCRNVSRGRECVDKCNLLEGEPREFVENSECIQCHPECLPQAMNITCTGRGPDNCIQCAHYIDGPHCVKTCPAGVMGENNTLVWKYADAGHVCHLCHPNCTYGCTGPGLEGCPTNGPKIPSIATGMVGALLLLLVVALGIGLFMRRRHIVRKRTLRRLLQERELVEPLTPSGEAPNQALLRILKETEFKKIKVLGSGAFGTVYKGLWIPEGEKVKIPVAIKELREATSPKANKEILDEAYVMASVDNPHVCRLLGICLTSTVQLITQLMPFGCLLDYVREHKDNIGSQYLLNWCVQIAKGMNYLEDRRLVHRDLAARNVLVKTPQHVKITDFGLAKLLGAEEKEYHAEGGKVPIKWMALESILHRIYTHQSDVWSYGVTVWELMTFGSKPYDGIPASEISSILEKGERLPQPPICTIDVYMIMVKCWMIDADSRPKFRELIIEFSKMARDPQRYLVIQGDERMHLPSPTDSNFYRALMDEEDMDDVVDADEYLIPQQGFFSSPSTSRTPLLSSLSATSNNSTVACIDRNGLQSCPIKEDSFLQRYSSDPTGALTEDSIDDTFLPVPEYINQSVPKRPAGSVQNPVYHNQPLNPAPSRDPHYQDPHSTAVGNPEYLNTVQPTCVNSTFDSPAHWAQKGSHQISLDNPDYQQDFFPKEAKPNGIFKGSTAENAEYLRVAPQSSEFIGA

Consider `O=C1Nc2ccccc2C1=C1C(=O)Nc2ccc(S(=O)(=O)Nc3ccc(C(F)(F)F)cc3)cc21` [10726/E09], for which, in test [1], the “Biochem EGFR %Inhibition” value came to 10.0%. Besides, the “Met Kinase % Inhibition” value in test [2] worked out at 50.3%.
On the same counts, the results for `O=C1Nc2c(Br)cc(Br)cc2C1=Cc1cc(Cl)cc(Br)c1O` [10727/A04] are 28.2% and 80.9%.
The matching figures for `O=C1Nc2ccc(F)cc2C1=C1C(=O)Nc2ccc(S(=O)(=O)N3CCOCC3)cc21` [10726/F08]: -21.5% and 67.3%.
For the compound `CCOC(=O)c1[nH]c(C=C2C(=O)Nc3ccc(S(=O)(=O)Nc4ccc(C(F)(F)F)cc4)cc32)c(C(=O)OC)c1C` [10726/E03], the “Biochem EGFR %Inhibition” value in test [1] is -15.9%. Besides, in test [2], the “Met Kinase % Inhibition” value was 62.4%.
On the same counts, the results for `COc1cccc(O)c1C=C1C(=O)Nc2ccc(CCCl)cc21` [10717/G10] are 2.4% and 30.9%.
The matching figures for `O=C1Nc2ccc(CCCl)cc2C1=Cc1c[nH]c2ccccc12` [10717/G06]: -3.4% and 34.0%.
For `COc1cccc(C=C2C(=O)Nc3c(Br)cc(Br)cc32)c1OC` [10727/A11], the “Biochem EGFR %Inhibition” value in test [1] is reported as 6.2%. Further, the “Met Kinase % Inhibition” value in test [2] was found to be 16.5%.
On the same counts, the results for `O=C1Nc2ccc(S(=O)(=O)N3CCOCC3)cc2C1=Cc1ccc(Br)o1` [10726/F05] are -26.8% and 51.2%.
As for `Cc1c(Br)ccc2c1C(=Cc1ccccc1Sc1ccc(Cl)cc1)C(=O)N2` [10727/C05], the “Biochem EGFR %Inhibition” value in test [1] is recorded as 11.8%. Moreover, in test [2], the “Met Kinase % Inhibition” value is 8.9%.
On the same counts, the results for `Cc1c(Br)ccc2c1C(=Cc1cc(O)ccc1O)C(=O)N2` [10727/C10] are 85.3% and 94.4%.
The matching figures for `O=C1Nc2c(Br)cc(Br)cc2C1=Cc1coc2ccccc2c1=O` [10727/A07]: -3.7% and 61.1%.
The matching figures for `CCc1cc(CC)c(C=C2C(=O)Nc3c(Br)cc(Br)cc32)[nH]1` [10727/A03]: -19.2% and 40.7%.
On to `O=C1Nc2c(Br)cc(Br)cc2C1=Cc1cc2c(cc1Cl)OCO2` [10727/A06], for which the “Biochem EGFR %Inhibition” value in test [1] is -6.3%. In test [2], the “Met Kinase % Inhibition” value is 32.7%.
With `CCc1cc(CC)c(C=C2C(=O)Nc3ccc(Br)c(C)c32)[nH]1` [10727/C03], in test [1], the “Biochem EGFR %Inhibition” value stood at 14.6%. In test [2], the “Met Kinase % Inhibition” value amounted to 11.9%.
The matching figures for `COc1ccc(C=C2C(=O)Nc3ccc(CCCl)cc32)cc1` [10726/G11]: 1.3% and 11.8%.
The matching figures for `N#Cc1ccc(C=C2C(=O)Nc3c(Br)cc(Br)cc32)cc1` [10727/A09]: 12.7% and 44.2%.
Regarding `O=C1Nc2ccccc2C1=C1C(=O)Nc2ccc(CCCl)cc21` [10726/G09], the “Biochem EGFR %Inhibition” value in test [1] was 3.3%. Moreover, in test [2], the “Met Kinase % Inhibition” value was found to be 42.4%.
The matching figures for `Cc1c(Br)ccc2c1C(=Cc1cccc(C#N)c1)C(=O)N2` [10727/C08]: 3.6% and 47.8%.
Regarding `CCc1ccc(C=C2C(=O)Nc3ccc(S(=O)(=O)N4CCOCC4)cc32)s1` [10726/F10], the “Biochem EGFR %Inhibition” value in test [1] was -17.4%. Besides, the “Met Kinase % Inhibition” value in test [2] was 51.4%.
The matching figures for `O=C1Nc2ccc(CCCl)cc2C1=Cc1ccc[nH]1` [10717/G09]: 24.9% and 19.1%.
Regarding `Cc1cn(C)cc1C=C1C(=O)Nc2ccc(S(=O)(=O)Nc3ccc(C(F)(F)F)cc3)cc21` [10726/E06], in test [1], the “Biochem EGFR %Inhibition” value was -20.6%. In addition, in test [2], the “Met Kinase % Inhibition” value is -7.4%.
On the same counts, the results for `CNS(=O)(=O)c1ccc2c(c1)C(=C1C(=O)Nc3ccccc31)C(=O)N2` [10726/D09] are -6.5% and 45.7%.
`CCc1cc(CC)c(C=C2C(=O)Nc3ccc(S(=O)(=O)NC)cc32)[nH]1` [10727/D03]: in test [1], the “Biochem EGFR %Inhibition” value is given as 39.4%. Besides, the “Met Kinase % Inhibition” value in test [2] amounted to 24.0%.
On the same counts, the results for `O=C1Nc2ccc(S(=O)(=O)Nc3ccc(C(F)(F)F)cc3)cc2C1=Cc1ccc(Br)o1` [10726/E05] are 5.5% and 71.0%.
As to `O=C1Nc2ccc(I)cc2C1=Cc1coc2ccccc2c1=O` [10727/B07], the “Biochem EGFR %Inhibition” value in test [1] is listed as 46.5%. Also, in test [2], the “Met Kinase % Inhibition” value turned out to be 83.5%.
The matching figures for `COc1cccc(C=C2C(=O)Nc3ccc(I)cc32)c1OC` [10727/B11]: 6.9% and 69.8%.
The matching figures for `O=C1Nc2ccc(I)cc2C1=Cc1cc(Cl)cc(Br)c1O` [10727/B04]: 47.4% and 87.1%.
On the same counts, the results for `O=C1Nc2ccccc2C1=C1C(=O)Nc2ccc(S(=O)(=O)N3CCOCC3)cc21` [10726/F09] are -22.8% and 66.8%.
`N#Cc1cccc(C=C2C(=O)Nc3ccc(I)cc32)c1` [10727/B08]: the “Biochem EGFR %Inhibition” value in test [1] turned out to be 47.4%. In addition, in test [2], the “Met Kinase % Inhibition” value came to 90.7%.
On the same counts, the results for `N#Cc1cccc(C=C2C(=O)Nc3c(Br)cc(Br)cc32)c1` [10727/A08] are 9.7% and 9.7%.
On the same counts, the results for `Cc1c(Br)ccc2c1C(=C1C(=O)Nc3ccc(F)cc31)C(=O)N2` [10726/C08] are 7.5% and 46.8%.
`Cc1c(Br)ccc2c1C(=C1C(=O)Nc3ccccc31)C(=O)N2` [10726/C09]: in test [1], the “Biochem EGFR %Inhibition” value is listed as -14.3%. Moreover, the “Met Kinase % Inhibition” value in test [2] is 48.5%.
The matching figures for `CNS(=O)(=O)c1ccc2c(c1)C(=Cc1ccc(Br)o1)C(=O)N2` [10726/D05]: -8.1% and 51.2%.
The matching figures for `N#Cc1ccc(C=C2C(=O)Nc3ccc(I)cc32)cc1` [10727/B09]: 31.7% and 81.9%.
With `Cc1c(Br)ccc2c1C(=Cc1coc3ccccc3c1=O)C(=O)N2` [10727/C07], the “Biochem EGFR %Inhibition” value in test [1] is 8.4%. Further, in test [2], the “Met Kinase % Inhibition” value is given as 36.7%.
On the same counts, the results for `CNS(=O)(=O)c1ccc2c(c1)C(=Cc1cc(C)c(O)c(C(C)(C)C)c1)C(=O)N2` [10726/D04] are -20.1% and 62.9%.
On to `Cc1cc(C=C2C(=O)Nc3ccc(S(=O)(=O)N4CCOCC4)cc32)cc(C(C)(C)C)c1O` [10726/F04], for which, in test [1], the “Biochem EGFR %Inhibition” value is given as 33.4%. For the same compound, the “Met Kinase % Inhibition” value in test [2] worked out at 93.5%.
The matching figures for `CCc1ccc(C=C2C(=O)Nc3ccc(Br)c(C)c32)s1` [10726/C10]: 2.8% and 36.7%.
On the same counts, the results for `O=C1Nc2ccc(CCCl)cc2C1=Cc1ccc(F)cc1` [10717/G05] are -0.1% and 4.7%.
The matching figures for `O=C1Nc2ccc(CCCl)cc2C1=Cc1ccc(Br)cc1` [10717/G08]: 36.4% and 10.9%.

Source of the values: patent EP1247803A2, “Indolinone compounds suitable for modulation of protein kinases” (Sugen, Inc., priority 1996, dated 1998).
